These results are taken from patent US6174875A, “Benzoquinoid ansamycins for the treatment of cardiac arrest and stroke” (priority 1999, dated 2001).

One data set deals with hsp70 in HT22 cells. Briefly: Western blot of inducible hsp70 expression in HT22 cells. The data set is classed as cell-based, mouse. As for the experimental part: (§1) Cells were harvested and lysed by sonication in 0.25 M Tris-HCl, pH 7.5 and lysates clarified by centrifugation at 14,000 rpm for 10 minutes at 4 ° C. Equivalent amounts of lysate protein (5 μg) were used for Western blot analysis as described by Xiao et al. (1997) Mol. Endocrinol. 11: 1365. The inducible form of the 70 kDa heat shock protein, hsp70, was uniquely detected using the SPA-810 monoclonal antibody (StressGen). GA induction of hsp70 was evident within 3 hours of GA treatment, was maximal upon 9 hours of GA treatment, and persisted for at least 12 hours in the presence of GA.
On the technique in general: A western blot detects proteins with antibodies after separation by electrophoresis.

Another data set deals with hsp90 in HT22 cells. Briefly: Western blot of steady state hsp90 levels in HT22 cells. The following applies: 0.1 μg/ml GA. The data set is classed as cell-based, mouse. On the procedure: as §1
Data set [1] relates to HT22 cells. Put plainly: Glutamate-induced cytotoxicity in HT22 cells by phase contrast/light microscopy and trypan blue staining. The data set is classed as cell-based, mouse. On the procedure: HT22 cells were seeded on 60 mm tissue culture dishes at 300,000 cells per dish and grown overnight. […] In order to provide a more accurate assessment of glutamate-induced oxidative toxicity, the ability of HT22 cells to metabolize 3-(4,5-[…]-2-yl)-2,5-diphenyl tetrazolium bromide (MTT) was assayed. The reduction of this dye by viable cells can easily be detected spectrophotometrically as described by Mosman (1983) J. Immunol. Methods 65:55 with reduced HT22 cell viability directly correlated with decreased metabolism of MTT (Shubert et al. (1992) Proc. Natl. Acad. Sci. USA 89:8264). HT22 cells were seeded on 96-well plates at 5,000 cells per well and grown for 12 hours. Cells were then treated with 2 mM, 5 mM or 10 mM concentrations of glutamate. […] After a total incubation period of 20 hours, cell viability was measured using an MTT assay as described by Li et al. (1997) Neuron 19:453. Briefly, 10 μl of MTT solution (5 mg/ml) was added to each well and cells incubated for an additional 4 hours. 100 μl of solubilization solution (50% dimethylformamide and 20% SDS, pH 4.8) was added and left on the cells 5 overnight, after which light absorption at 570 nm was measured. Values (% Viability) represent the average of quadruplicate (FIG. 1) or triplicate (FIG. 2) determinations±S.D. Similar results were obtained in a replicate experiment. Cell viability was expressed relative to control cells treated with GA or Herb alone.

The subject of data set [2] is glutathione levels in HT22 cells. Put plainly: Cellular glutathione (GSH) levels in HT22 cells (monochlorobimane fluorescence). The following applies: 0.1 μg/ml GA, 5 mM glutamate, 2-8 hours (FIG. 3). In kind it is cell-based, mouse. As for the experimental part: Cellular glutathione (GSH) levels were measured in HT22 cells as described previously by Kane (1993) Science 262:1274. Briefly, HT22 cells were seeded onto 96-well plates at 20,000 cells per well and grown overnight. […] Monochlorobimane was added to 40 μM and following an additional 30 minutes of incubation, fluorescence at 460 nm in response to excitation at 395 mn was measured using a Perkin Elmer fluorescence plate reader. Values represent the average of triplicate experiments±S.D.

The subject of data set [3] is HT22 cells. Briefly: Internucleosomal DNA cleavage (apoptosis) in HT22 cells. The data set is classed as cell-based, mouse. As for the experimental part:
HT22 cells were treated with 5 mM glutamate (Glu) for 20 hours. […] Controls included HT22 cells not treated with Glu or GA and cells treated with GA alone.

A further data set relates to hsp70 in rat brain. Put plainly: Western blot of hsp70 in rat hippocampus after intracranial ventricular injection. The data set is classed as in vivo. The following applies: 20 μg geldanamycin icv, 12 or 24 hours (FIGS. 5A, 5B). On the procedure:
(§2) Geldanamycin was delivered to rat brain by intracranial ventricular (icv) injection as follows. Rats were stereotaxically fitted with 4 mm×22 gauge guide cannulae directed at the lateral ventricle (AP-2.0, ML+2.0). […] The injector was removed and replaced with a stylet. At 12 or 24 hours after injection, hippocampi were isolated from which whole cell extracts were prepared and subjected to Western blot analysis to visualize raf- 1 and actin, or hsp70. Negative and positive control protein samples for hsp70 were prepared from untreated or heat shocked HT22 cells. Western blot analysis is depicted in FIGS. 5A and 5B in which the (-) and (+) lanes refer to the negative and positive control samples.

The subject of another data set is raf-1 in rat brain. Briefly: Western blot of raf-1 in rat hippocampus after intracranial ventricular injection. In kind it is in vivo. The following applies: 20 μg geldanamycin icv, 12 or 24 hours (FIGS. 5A, 5B). On the procedure: as §2
In another data set the test system is hsp70 in fibroblasts. Particulars: cited from earlier work.
Data set [4] deals with heat shock proteins in myogenic H9c2 cells. The following applies: cited from earlier work.
The subject of data set [5] is heat shock proteins in rat cardiomyocytes. Particulars: cited from earlier work.
In data set [6] the test system is myogenic H9c2 cells and cardiomyocytes. Particulars: pretreatment; cited from earlier work.

Take `COC1=C2C[C@@H](C)C[C@H](OC)[C@H](O)[C@@H](C)/C=C(\C)[C@H](OC(N)=O)[C@@H](OC)/C=C\C=C(/C)C(=O)NC(=CC1=O)C2=O` [geldanamycin]: in the data set on hsp70 in HT22 cells (0.1 μg/ml GA + 5 mM glutamate), the “hsp70 induction by GA in the presence of glutamate” value is recorded as “still able to induce hsp70” and the “time GA-induced hsp70 levels are maintained in the presence of glutamate” value is recorded as “up to 12 hours”. For the same compound, in the data set on hsp70 in HT22 cells (0.1 μg/ml GA, HT22 cells), the “persistence of hsp70 induction in the presence of GA” value is “at least 12 hours”, the “time at which GA induction of hsp70 was evident” value was at most 3 h and the “time of maximal GA induction of hsp70” value was found to be 9 h. For the same compound, in the data set with hsp70 in HT22 cells (doses above 0.1 μg/ml, HT22 cells), the “induction of hsp70 protein levels at higher doses of GA” value was “not significantly enhanced at higher doses”. Further, in the data set with hsp70 in HT22 cells (vs 60 minute 42° C. heat shock, 0.1 μg/ml GA), the “induction of hsp70 compared with heat shock” value was “as effective as a 60 minute 42 °C heat shock”. For the same compound, the “steady state levels of hsp90” value in the data set on hsp90 in HT22 cells is “not affected”. Besides, in the data set on HT22 cells [1] (0.1 μg/ml GA, 5 mM glutamate, GA added at same time or 1, 2 or 6 hours after glutamate), the “protection from glutamate-induced oxidative toxicity (phase contrast)” value was “led to protection from glutamate-induced oxidative toxicity”. Further, the “HT22 cell growth rate, GA alone” value with HT22 cells [1] (GA alone) was “appeared to reduce HT22 cell growth rate”. Besides, the “cell death, GA alone” value in the data set with HT22 cells [1] (GA alone, assessed after 24 hours) is “did not lead to cell death”. For the same compound, in [2], the “recovery of glutathione levels” value is “did not lead to recovery of glutathione levels”. Further, the “internucleosomal DNA cleavage, GA alone” value in the data set on HT22 cells [3] (0.1 μg/ml GA alone) is listed as “not subjected to this type of characteristic genomic DNA cleavage”. Moreover, the “block of glutamate-induced internucleosomal DNA cleavage” value in the data set on HT22 cells [3] (0.1 μg/ml GA, 5 mM glutamate) is on record as “able to block glutamate-induced internucleosomal DNA cleavage”. Further, the “expression of hsp70 in rat brain” value in the data set on hsp70 in rat brain is on record as “increased expression of hsp70”. For the same compound, in the data set on raf-1 in rat brain, the “expression of raf-1 proto-oncogene in rat brain” value was “decreased expression of the raf-1 proto-oncogene”. Further, the “induction of hsp70 expression in fibroblasts” value in the data set on hsp70 in fibroblasts is recorded as “induce hsp70 expression”. Further, the “induction of hsp70 expression in a myogenic cell line” value in data set [4] was “induce hsp70 expression”. For the same compound, the “overexpression of heat shock proteins in myogenic H9c2 cells” value in data set [4] (pretreatment) is recorded as “overexpression of heat shock proteins”. Further, the “induction of hsp70 expression in rat cardiomyocytes” value in data set [5] is recorded as “induce hsp70 expression”. For the same compound, the “overexpression of heat shock proteins in cardiomyocytes” value in data set [5] (pretreatment) is given as “overexpression of heat shock proteins”. Moreover, the “protection against simulated ischemia” value in data set [6] is reported as “conferred protection against simulated ischemia”.
